Assay results as given in patent US20200330484A1, “STEROIDAL COMPOUNDS FOR TREATMENT OF MENTAL AND NEUROLOGICAL DISORDERS” (USTAV ORGANICKE CHEMIE A BIOCHEMIE AV CR, V.V.I., priority 2017, published 2020).
Read-outs that look alike come from different tables or passages of the source.

How the values were obtained:
[1] = target: T1, hGluN1/hGluN2B(G820A) (Homo sapiens, UniProt Q05586+Q13224, G820A); settings: read-out: Glutamate EC50; calculated from ratio of responses to two glutamate concentrations, h fixed at 1.4
[2] = target: T2, hGluN1/hGluN2B(V558I) (Homo sapiens, UniProt Q05586+Q13224, V558I); settings: read-out: Glutamate EC50; calculated from ratio of responses to two glutamate concentrations, h fixed at 1.4
[3] = target: T3, hGluN1/hGluN2B(L825V) (Homo sapiens, UniProt Q05586+Q13224, L825V); settings: read-out: Glutamate EC50; calculated from ratio of responses to two glutamate concentrations, h fixed at 1.4
[4] = target: T4, hGluN1/hGluN2B(V618G) (Homo sapiens, UniProt Q05586+Q13224, V618G); settings: read-out: Glutamate EC50; calculated from ratio of responses to two glutamate concentrations, h fixed at 1.4
[5] = target: hGluN1/hGluN2B(N615I) (Homo sapiens, UniProt Q05586+Q13224, N615I); test: cell-based; settings: read-out: Glycine EC50
[6] = target: hGluN1/hGluN2B(E657G) (Homo sapiens, UniProt Q05586+Q13224, E657G); test: cell-based; settings: read-out: Glycine EC50
[7] = target: T4, hGluN1/hGluN2B(V618G); test: cell-based; settings: read-out: Glycine EC50
[8] = target: T1, hGluN1/hGluN2B(G820A); test: cell-based; settings: read-out: Glycine EC50
[9] = target: T3, hGluN1/hGluN2B(L825V); test: cell-based; settings: read-out: Glycine EC50
[10] = target: T2, hGluN1/hGluN2B(V558I); test: cell-based; settings: read-out: Glycine EC50
[11] = target: T1, hGluN1/hGluN2B(G820A); test: Whole-cell patch clamp, steroid potentiation of responses tonically activated by low concentration of glutamate; type: cell-based; parameters: The amino acids are numbered on the basis of the full-length protein, including the signal peptide; expressed in transfected cells; host or cells: HEK293T; settings: PA-But 15 μmol · l^−1; HEK293T; mean ± SEM
Experimental: (§1) Human embryonic kidney-293T (HEK293T) cells were used for transfection of human genes encoding for NMDA receptor subunits: hGluN1 (GenBank, accession number NP_015566) and hGluN2B (GenBank, accession number NP_000825). Equal amounts ([…]) of DNA encoding for GluN1 and GluN2B were mixed with 0.9 μl Matra-A Reagent (IBA, Gottingen, Germany) and added to confluent HEK293T cells. After trypsinization, the cells were resuspended in Opti-MEM I (ThermoFisher Scientific, Paisley, UK; Cat. #31985062) containing 1% fetal bovine serum supplemented with 15 mmol·l^−1 MgCl2, 1 mmol·l^−1 D,L-2-amino-5-phosphonopentanoic acid (D,L-AP5), and 1 μmol.l^−1 ketamine.
(§2) Mutations in the GluN2B subunit were made using the QuickChange Site-Directed Mutagenesis Kit (Agilent Technologies, Santa Clara, Calif., USA) according to the manufacturer's instructions. Mutated cDNA was transformed into ultra-competent XL1Gold E. coli cells, multiplied, positive clones were selected, and the isolated plasmide DNA was verified by sequencing (SEQme s.r.o., Dobris, Czechia, or GATC Biotech AG, Constance, Germany) All mutations were verified by DNA sequencing. Transfected HEK293T cells were identified by GFP epifluorescence. The amino acids are numbered on the basis of the full-length protein, including the signal peptide.
(§3) Experiments were performed 12-36 h after the end of transfection on cultured HEK293T cells transfected with vectors containing hGluN1/hGluN2B/GFP. Whole-cell voltage clamp current recordings were performed at room temperature (21-25° C.) at a holding potential of −60 mV using a patch-clamp amplifier (Axopatch 200B; Molecular Devices, Sunnyvale, Calif., USA) after a capacitance and series resistance (<10 MΩ) compensation of 80-90%. Data were collected (low-pass filtered at 2 kHz and sampled at 10 kHz) and analyzed using pClamp 10 (Molecular Devices). Patch pipettes (3-5 MΩ) were filled with an intracellular solution (ICS) containing (in mmol·l^−1): 120 gluconic acid, 15 CsCl, 10 BAPTA, 10 HEPES, 3 MgCl2, 1 CaCl2, and 2 ATP-Mg salt (pH-adjusted to 7.2 with CsOH) and extracellular solution (ECS) contained the following (in mmol·l^−1): 160 NaCl, 2.5 KCl, 10 HEPES, 10 glucose, 0.2 EDTA, and 0.7 CaCl2) (pH-adjusted to 7.3 with NaOH). […] The tested steroid solutions were made from freshly prepared 20 mmol·l^−1 20-oxopregn-5en-3β-yl sulfate (PE-S; pregnenolone sulfate), 5 mmol·l^−1 androst-5-en-3β-yl hemisuccinate (AND-hSuc), or 10 mmol·l^−1 20-oxo-5β-pregnan-3-yliden-4′-but-2-enoic acid stock in dimethyl sulfoxide (DMSO). The final dilution to ECS was made at 50° C. and followed by 1 min sonication (SONOREX DIGITEC DT 100/H, BADELIN electronic, Berlin, Germany) The same concentration of DMSO was added to all extracellular solutions. Control and test solution applications were made with a microprocessor-controlled multibarrel fast-perfusion system. The solution exchange rate was ˜15 ms. The following mutations of the gene encoding for hGluN2B subunit (GRIN2B) were tested: P553L; V558I; W607C; N615I; V618G; S628F; E657G; G820E; G820A; M824R; L825V. These mutations are located in the preM1, M2, M3, and M4 transmembrane domains of the receptor (FIG. 1).

[12] = target: T2, hGluN1/hGluN2B(V558I); test: as above; type: cell-based; parameters: The amino acids are numbered on the basis of the full-length protein, including the signal peptide; expressed in transfected cells; host or cells: HEK293T; settings: PA-But 15 μmol · l^−1; HEK293T; mean ± SEM
Experimental: as §1, §2, §3

[13] = system: C57BL/6 mice (control) and BALB/c mice; test: Three-chamber social behavior test; type: in vivo; settings: intraperitoneal, 1 and 10 mg/kg, dissolved in cyclodextrine
Text: In in vivo experiments, the effect of the steroid 20-oxo-5β-pregnan-3-ylidene-4′-but-2-enoic acid on C57BL/6 mice (control) and BALB/c mice was compared. BALB/c mice show a higher rate of anxiety behavior and lower socialization, which is considered to be a certain equivalent of autistic manifestations in humans.

[14] = target: T4, hGluN1/hGluN2B(V618G); test: Whole-cell patch clamp, steroid potentiation of responses tonically activated by low concentration of glutamate; type: cell-based; parameters: expressed in transfected cells; host or cells: HEK293T; settings: PA-But 15 μmol · l^−1; HEK293T; mean ± SEM
Experimental: as §1, §2, §3

[15] = target: T3, hGluN1/hGluN2B(L825V); test: as above; type: cell-based; parameters: expressed in transfected cells; host or cells: HEK293T; settings: PA-But 15 μmol · l^−1; HEK293T; mean ± SEM
Experimental: as §1, §2, §3

[16] = target: T5, hGluN1/hGluN2B (WT) receptors (Homo sapiens, UniProt Q05586+Q13224); test: as above; type: cell-based; settings: PA-But 15 μmol · l^−1; HEK293T; mean ± SEM
T5 construct: expressed in transfected cells; host or cells: HEK293T
Experimental: as §1, §2, §3

N[C@@H](CCC(=O)O)C(=O)O [Glutamate, glutamate]
potency estimated from few doses [1]: 1500 ± 300 nM
potency estimated from few doses [2]: 1600 ± 300 nM
potency estimated from few doses [3]: 1600 ± 200 nM
potency estimated from few doses [4]: 1800 ± 200 nM

NCC(=O)O [Glycine, glycine]
potency estimated from few doses [5]: 310 ± 20 nM
potency estimated from few doses [6]: 390 ± 80 nM
potency estimated from few doses [7]: 270 ± 20 nM
potency estimated from few doses [8]: 200 ± 90 nM
potency estimated from few doses [9]: 160 ± 10 nM
potency estimated from few doses [10]: 220 ± 50 nM

CC(=O)[C@H]1CC[C@H]2[C@@H]3CC[C@@H]4CC(=CC=CC(=O)O)CC[C@]4(C)[C@H]3CC[C@]12C [PA-But, 20-oxo-5β-pregnan-3-ylidene-4′-but-2-enoic acid]
Potentiating effect (%) [11]: 7 ± 3 (5)^††; %
Potentiating effect (%) [12]: −9 ± 5 (4)^††; %
Social behavior (interest in the second mouse cage vs an empty cage) [13]: greater interest in the second mouse cage than in an empty cage
Potentiating effect (%) [14]: 67 ± 12 (3)^††; %
Potentiating effect (%) [15]: 577 ± 78 (10)^††; %
Potentiating effect (%) [16]: 212 ± 19 (22) %
